Test results from patent publication US20140113898A1, “BISARYLSULFONE AND DIALKYLARYLSULFONE COMPOUNDS AS CALCIUM CHANNEL BLOCKERS” (Zalicus Pharmaceuticals Ltd., priority 2010, published 2014).
Like-named read-outs stand apart in the source and are kept apart here.

Key:
Format in all cases: cell-based
CaV3.1 = biological target: T1, CaV3.1 (Homo sapiens, UniProt O43497); experiment: High-throughput CaV3.1 T-type FLIPR fluorescent assay; settings: Fluo-4 FLIPR
T1 construct: expressed in transfected cells; host or cells: unnamed doxycycline-inducible cell line
Method: (§1) Cells were plated in 384-well, clear-bottom, black-walled, poly-D-lysine coated plates (Becton Dickinson, Franklin Lake, N.J.) 2 days prior to use in the FLIPR assay. 100 μL of cells (2.0×10^6 cell/mL) containing doxycyline (Sigma-Aldrich, 1.5 μg/mL; to induce channel expression) were added to each well using a Multidrop (Thermo Scientific, Waltham, Mass.) and were maintained in 5% CO2 incubator at 37° C. On the morning of the assay, cells were transferred to a 5% CO2 incubator at 29° C.
Cells were washed with a wash buffer containing (in mM): 118 NaCl, 18.4 HEPES, 11.7 D-glucose, 0.05 CaCl2, 0.5 MgSO4, 1 KCl, and 1.2 KH2PO4, with the pH adjusted to 7.2 with NaOH. 4.4 μM of the fluorescent indicator dye, Fluo-4 (Invitrogen), prepared in pluronic acid
(Sigma-Aldrich), was loaded into the wells and incubated for 45 minutes at 29° C. in 5% CO2. Cells were then rinsed with the following low Ca^2+ buffer (in mM): 0.34 Na2HPO4, 4.2 NaHCO3, 0.44 KH2PO4, 0.41 MgSO4, 0.49 MgCl2-6H2O, 20 HEPES, 5.5 D-Glucose, 137 NaCl, 5.3 KCl, and 0.001 CaCl2, with 0.1% BSA and the pH adjusted to 7.2 with NaOH. Concentration-dependent response curves were generated from 5 mM stock solutions prepared in DMSO (Sigma-Aldrich) and diluted in the buffer containing low Ca^2+ and incubated for 20 minutes at 29° C. in 5% CO2. Calcium entry was evoked with an addition of (in mM): 0.34 Na2HPO4, 4.2 NaHCO3, 0.44 KH2PO4, 0.41 MgSO4, 0.49 MgCl2-6H2O, 20 HEPES, 5.5 D-Glucose, 137 NaCl, 5.3 KCl, and 6 CaCl2, with 0.1% BSA and the pH adjusted to 7.2 with NaOH. A change in the Fluo-4 fluorescence signal was assessed using FLIPR^TETRA™ instrument (Molecular Devices, Sunnyvale, Calif.) for 3 minutes following the elevation of extracellular KCl using an illumination wavelength of 470-495 nm with emissions recorded at 515-575 nm.
(§2) Concentration-dependent response curves were obtained by comparing the fluorescence signal in the presence of compound and fitted with a logistic function (1) to obtain the concentration that inhibited 50% (IC50) of the RLU signal using OriginPro v.7.5 software (OriginLab, Northampton, Mass.).
(§3) To assess the quality of the FLIPR assays the Z-factor (2) was used to quantify the suitability of the assay conditions using the following equation: […]
(§4) Data are expressed as mean and standard deviation (SD).

CaV2.2 = biological target: T2, CaV2.2 (Homo sapiens, UniProt Q00975); experiment: High-throughput CaV2.2/Kir2.3 FLIPR fluorescent assay; settings: Fluo-4 FLIPR, closed or inactivated state not stated, read-out: FLIPR data CaV2.2
T2 construct: expressed in transfected cells; host or cells: unnamed doxycycline-inducible cell line
T2 sequence (Q00975 whole entry): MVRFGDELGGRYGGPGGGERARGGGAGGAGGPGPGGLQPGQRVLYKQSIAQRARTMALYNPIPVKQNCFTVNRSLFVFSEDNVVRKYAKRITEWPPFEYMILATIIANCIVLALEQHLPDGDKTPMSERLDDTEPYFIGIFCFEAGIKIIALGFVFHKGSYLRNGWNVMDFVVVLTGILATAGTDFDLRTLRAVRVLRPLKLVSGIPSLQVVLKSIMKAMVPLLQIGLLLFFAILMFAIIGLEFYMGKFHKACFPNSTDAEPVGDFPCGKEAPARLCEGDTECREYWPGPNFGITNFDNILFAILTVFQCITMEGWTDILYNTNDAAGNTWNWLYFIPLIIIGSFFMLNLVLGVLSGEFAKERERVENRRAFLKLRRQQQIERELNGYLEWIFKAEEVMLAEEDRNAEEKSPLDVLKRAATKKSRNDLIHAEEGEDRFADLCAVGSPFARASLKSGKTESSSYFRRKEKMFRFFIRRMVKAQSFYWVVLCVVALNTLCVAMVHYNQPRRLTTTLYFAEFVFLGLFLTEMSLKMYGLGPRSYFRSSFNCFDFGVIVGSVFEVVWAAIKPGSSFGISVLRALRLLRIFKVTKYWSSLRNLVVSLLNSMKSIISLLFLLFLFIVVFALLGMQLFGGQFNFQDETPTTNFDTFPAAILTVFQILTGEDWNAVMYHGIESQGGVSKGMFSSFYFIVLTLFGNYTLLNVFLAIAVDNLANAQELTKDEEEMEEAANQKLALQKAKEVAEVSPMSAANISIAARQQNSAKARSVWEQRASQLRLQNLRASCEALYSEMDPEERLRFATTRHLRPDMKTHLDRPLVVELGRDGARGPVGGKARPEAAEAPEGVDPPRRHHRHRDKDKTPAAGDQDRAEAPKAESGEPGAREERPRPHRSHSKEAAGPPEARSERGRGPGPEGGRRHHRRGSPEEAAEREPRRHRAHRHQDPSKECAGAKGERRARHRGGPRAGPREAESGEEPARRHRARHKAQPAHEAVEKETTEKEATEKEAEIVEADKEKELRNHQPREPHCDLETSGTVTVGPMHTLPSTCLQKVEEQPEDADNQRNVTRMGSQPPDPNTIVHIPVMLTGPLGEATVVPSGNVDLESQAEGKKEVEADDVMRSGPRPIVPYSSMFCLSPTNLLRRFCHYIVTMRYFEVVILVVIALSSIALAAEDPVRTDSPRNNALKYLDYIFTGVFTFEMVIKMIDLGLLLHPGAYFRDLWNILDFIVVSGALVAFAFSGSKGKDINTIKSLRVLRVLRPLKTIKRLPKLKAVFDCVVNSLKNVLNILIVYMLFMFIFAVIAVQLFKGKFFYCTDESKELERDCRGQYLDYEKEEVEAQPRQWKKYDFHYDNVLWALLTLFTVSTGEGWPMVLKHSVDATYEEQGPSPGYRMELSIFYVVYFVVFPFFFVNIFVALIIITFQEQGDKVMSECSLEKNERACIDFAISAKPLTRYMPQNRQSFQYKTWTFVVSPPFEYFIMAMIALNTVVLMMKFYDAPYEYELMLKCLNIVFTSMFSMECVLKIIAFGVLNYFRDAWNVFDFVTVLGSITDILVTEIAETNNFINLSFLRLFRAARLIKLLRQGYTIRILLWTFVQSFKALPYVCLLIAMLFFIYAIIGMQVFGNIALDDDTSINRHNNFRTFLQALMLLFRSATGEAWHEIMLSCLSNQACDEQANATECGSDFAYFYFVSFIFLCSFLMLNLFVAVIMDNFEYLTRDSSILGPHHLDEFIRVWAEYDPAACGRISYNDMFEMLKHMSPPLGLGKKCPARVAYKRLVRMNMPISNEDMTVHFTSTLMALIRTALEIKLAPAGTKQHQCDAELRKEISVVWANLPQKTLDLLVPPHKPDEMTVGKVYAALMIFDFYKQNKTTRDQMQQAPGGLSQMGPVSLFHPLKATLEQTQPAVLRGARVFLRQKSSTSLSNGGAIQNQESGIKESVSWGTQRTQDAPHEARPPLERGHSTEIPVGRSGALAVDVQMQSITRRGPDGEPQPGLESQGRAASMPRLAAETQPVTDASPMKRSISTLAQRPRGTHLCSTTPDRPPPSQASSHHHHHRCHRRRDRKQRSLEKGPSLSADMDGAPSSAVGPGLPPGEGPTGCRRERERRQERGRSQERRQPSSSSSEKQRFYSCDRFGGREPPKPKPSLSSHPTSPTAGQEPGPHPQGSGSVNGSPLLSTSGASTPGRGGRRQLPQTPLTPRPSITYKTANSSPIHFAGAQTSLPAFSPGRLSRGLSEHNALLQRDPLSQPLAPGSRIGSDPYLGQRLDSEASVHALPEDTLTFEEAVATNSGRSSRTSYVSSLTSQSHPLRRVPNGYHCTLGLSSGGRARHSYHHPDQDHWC
T2 sequence (P54284 whole entry partner): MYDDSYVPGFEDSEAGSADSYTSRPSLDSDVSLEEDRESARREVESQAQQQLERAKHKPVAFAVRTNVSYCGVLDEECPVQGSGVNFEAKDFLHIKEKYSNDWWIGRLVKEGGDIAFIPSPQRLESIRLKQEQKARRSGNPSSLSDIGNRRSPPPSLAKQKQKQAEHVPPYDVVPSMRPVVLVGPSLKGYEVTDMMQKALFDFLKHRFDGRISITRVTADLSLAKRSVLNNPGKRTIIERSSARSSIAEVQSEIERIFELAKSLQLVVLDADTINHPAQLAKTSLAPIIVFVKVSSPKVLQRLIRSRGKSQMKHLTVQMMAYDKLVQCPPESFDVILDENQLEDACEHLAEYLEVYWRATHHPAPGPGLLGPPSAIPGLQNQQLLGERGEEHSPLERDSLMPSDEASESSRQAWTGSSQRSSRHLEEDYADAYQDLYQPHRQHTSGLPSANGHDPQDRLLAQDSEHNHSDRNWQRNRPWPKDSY
T2 sequence (P54289 25-946 partner limits assumed): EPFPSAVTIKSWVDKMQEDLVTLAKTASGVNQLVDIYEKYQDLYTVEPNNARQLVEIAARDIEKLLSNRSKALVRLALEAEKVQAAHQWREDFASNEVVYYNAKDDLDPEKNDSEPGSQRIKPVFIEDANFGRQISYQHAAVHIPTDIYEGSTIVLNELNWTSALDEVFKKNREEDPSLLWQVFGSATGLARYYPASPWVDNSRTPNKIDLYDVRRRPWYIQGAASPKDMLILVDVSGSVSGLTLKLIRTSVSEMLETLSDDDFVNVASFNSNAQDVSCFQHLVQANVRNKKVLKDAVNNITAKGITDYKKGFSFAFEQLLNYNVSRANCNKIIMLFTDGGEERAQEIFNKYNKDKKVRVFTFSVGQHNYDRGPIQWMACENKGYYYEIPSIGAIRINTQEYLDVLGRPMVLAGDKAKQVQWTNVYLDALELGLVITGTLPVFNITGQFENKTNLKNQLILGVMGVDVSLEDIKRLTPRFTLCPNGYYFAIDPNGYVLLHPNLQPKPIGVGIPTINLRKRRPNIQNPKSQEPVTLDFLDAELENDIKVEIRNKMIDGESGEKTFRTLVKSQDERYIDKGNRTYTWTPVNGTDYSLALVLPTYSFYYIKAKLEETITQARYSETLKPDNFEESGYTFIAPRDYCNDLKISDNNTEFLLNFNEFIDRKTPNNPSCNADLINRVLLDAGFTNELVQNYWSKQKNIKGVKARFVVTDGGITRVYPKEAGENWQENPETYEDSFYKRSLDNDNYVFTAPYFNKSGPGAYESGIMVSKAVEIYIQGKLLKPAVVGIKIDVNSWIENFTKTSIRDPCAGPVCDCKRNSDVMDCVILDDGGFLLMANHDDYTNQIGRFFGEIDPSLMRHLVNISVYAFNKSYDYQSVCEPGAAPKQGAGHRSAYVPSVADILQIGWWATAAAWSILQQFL
T2 sequence (P54289 947-1103 partner limits assumed): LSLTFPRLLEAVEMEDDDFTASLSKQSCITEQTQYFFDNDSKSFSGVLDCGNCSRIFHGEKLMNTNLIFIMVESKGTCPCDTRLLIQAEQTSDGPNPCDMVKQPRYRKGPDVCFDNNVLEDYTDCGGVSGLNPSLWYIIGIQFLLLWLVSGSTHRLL
Procedure, shortened: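 IC50 was derived by logistic fitting of the FLIPR Fluo-4 signal recorded over 3 min after a 130 mM KCl stimulus. Before stimulation, cells (channel expression induced with doxycycline, 29 °C on assay day) were kept in pH 7.4 buffer with 2 mM KCl for the closed-state format or 12.5 mM KCl for the inactivated-state format.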

CaV3.2 = biological target: T3, CaV3.2 (Homo sapiens, UniProt O95180); experiment: High-throughput CaV3.2/Kir2.3 T-type FLIPR fluorescent assay; settings: Fluo-4 FLIPR, closed or inactivated state not stated
T3 construct: expressed in transfected cells; host or cells: unnamed doxycycline-inducible cell line
Method: as §1, with “µL” for “μL”, “(1.2×10^6” for “(2.0×10^6”
Cells were washed with a wash buffer containing (in mM): 118 NaCl, 18.4 HEPES, 11.7 D-glucose, 2 CaCl2, 0.5 MgSO4, 4.7 KCl, and 1.2 KH2PO4, with the pH adjusted to 7.2 with
NaOH. 4.4 μM of the fluorescent indicator dye Fluo-4 (Invitrogen) prepared in pluronic acid (Sigma-Aldrich) was loaded into the wells and incubated for 45 minutes at 29° C. in 5% CO2. Cells were then rinsed with either a 2 mM KCl closed-state buffer (in mM: 138.5 NaCl, 10 HEPES, 10 D-glucose, 1 CaCl2, and 2 KCl, with the pH adjusted to 7.4 with NaOH) when performing the closed-state assay or 7.6 mM KCl inactivated-state buffer (in mM: 130.9 NaCl, 10 HEPES, 10 D-glucose, 1 CaCl2, and 7.6 mM KCl, with the pH adjusted to 7.4 with NaOH) when performing the inactivated-state assay. Concentration-dependent response curves were generated from 5 mM stock solutions prepared in DMSO (Sigma-Aldrich), diluted in either the 2 mM KCl buffer or 7.6 mM KCl buffer, and incubated for 20 minutes at 29° C. in 5% CO2. Calcium entry was evoked with an addition of either 12 mM KCl stimulation buffer (in mM: 128.5 NaCl, 10 HEPES, 10 D-glucose, 1 CaCl2, and 12 KCl, with the pH adjusted to 7.4 with NaOH) or 14.5 mM KCl stimulation buffer (in mM: 126 NaCl, 10 HEPES, 10 D-glucose, 1 CaCl2, and 14.5 KCl, with the pH adjusted to 7.4 with NaOH) for the closed-state or inactivated-state assay respectively. A change in the Fluo-4 fluorescence signal was assessed using FLIPR^TETRA™ instrument (Molecular Devices, Sunnyvale, Calif.) for 3 minutes following the elevation of extracellular KCl using an illumination wavelength of 470-495 nm with emissions recorded at 515-575 nm.
as §2, §3, §4

Structure (SMILES)	IC50 (CaV3.1; Table 4)	IC50 (CaV2.2; Table 4)	IC50 (CaV3.2; Table 4)	IC50 (CaV3.1; Table 5)	IC50 (CaV2.2; Table 5)	IC50 (CaV3.2; Table 5)
N[C@H](C(=O)NCc1ccc(S(=O)(=O)c2cccc(C(F)(F)F)c2)cc1)c1ccccc1 [Compound 67, (S)-2-amino-2-phenyl-N-(4-((3-(trifluoromethyl)phenyl)sulfonyl)benzyl)acetamide]	3.64 µM	0.66 µM	3.74 µM			
O=C(NCc1ccc(S(=O)(=O)c2cccc(C(F)(F)F)c2)cc1)c1ccnc(C(F)(F)F)n1 [Compound 9, 2-(trifluoromethyl)-N-(4-((3-(trifluoromethyl)phenyl)sulfonyl)benzyl)pyrimidine-4-carboxamide]	2.85 µM	0.49 µM	1.69 µM			
COc1cc(C(=O)NCc2cccc(S(=O)(=O)c3cccc(C(F)(F)F)c3)c2)cc(Cl)n1 [Compound 30]	1.11 µM	0.31 µM	0.51 µM			
CC(C)(C(=O)NC1CCN(c2ccc(C(F)(F)F)cc2)CC1)S(=O)(=O)c1cccc(C(F)(F)F)c1 [Compound 137, 2-methyl-N-(1-(4-(trifluoromethyl)phenyl)piperidin-4-yl)-2-((3-(trifluoromethyl)phenyl)sulfonyl)propanamide]				4.53 µM	1.61 µM	3 µM
O=C(NCc1ccc(S(=O)(=O)c2cccc(C(F)(F)F)c2)cc1)[C@@H]1C[C@@H](C2CCCCC2)CN1 [Compound 72, (2S,4S)-4-cyclohexyl-N-(4-((3-(trifluoromethyl)phenyl)sulfonyl)benzyl)pyrrolidine-2-carboxamide]	8.9 µM	0.76 µM	2.32 µM			
O=C(NCc1ccccc1S(=O)(=O)c1cccc(C(F)(F)F)c1)[C@@H]1C[C@@H](C2CCCCC2)CN1 [Compound 75, (2S,4S)-4-cyclohexyl-N-(2-((3-(trifluoromethyl)phenyl)sulfonyl)benzyl)pyrrolidine-2-carboxamide]	5.47 µM	1.06 µM	1.59 µM			
CC(C)(C(=O)NCc1ccc(S(=O)(=O)c2cccc(C(F)(F)F)c2)cc1)S(=O)(=O)c1cccc(C(F)(F)F)c1 [Compound 225, 2-methyl-2-((3-(trifluoromethyl)phenyl)sulfonyl)-N-(4-((3-(trifluoromethyl)phenyl)sulfonyl)benzyl)propanamide]				1.41 µM	0.1 µM	0.63 µM
CC(C)(C(=O)Nc1ccc(Oc2ccc(C(F)(F)F)cn2)nc1)S(=O)(=O)c1cccc(OC(F)(F)F)c1 [Compound 123, 2-methyl-2-((3-(trifluoromethoxy)phenyl)sulfonyl)-N-(6-((5-(trifluoromethyl)pyridin-2-yl)oxy)pyridin-3-yl)propanamide]				4.99 µM	0.92 µM	3.01 µM
O=C(NCc1cccc(S(=O)(=O)c2cccc(C(F)(F)F)c2)c1)c1ccnc(C(F)(F)F)n1 [Compound 27, 2-(trifluoromethyl)-N-(3-((3-(trifluoromethyl)phenyl)sulfonyl)benzyl)pyrimidine-4-carboxamide]	3.36 µM	0.31 µM	2.45 µM			
CC(C)S(=O)(=O)c1cc(C(F)(F)F)cnc1C(=O)NCc1cccc(S(=O)(=O)c2cccc(C(F)(F)F)c2)c1 [Compound 25, 3-(isopropylsulfonyl)-5-(trifluoromethyl)-N-(3-((3-(trifluoromethyl)phenyl)sulfonyl)benzyl)picolinamide]	1.58 µM	0.17 µM	1.74 µM			

More lines, now with the values ahead:

IC50 (CaV3.1; Table 4)	IC50 (CaV2.2; Table 4)	IC50 (CaV3.2; Table 4)	IC50 (CaV3.1; Table 5)	IC50 (CaV2.2; Table 5)	IC50 (CaV3.2; Table 5)	Structure (SMILES)
2.29 µM	0.63 µM	0.59 µM				O=C(NCc1ccc(S(=O)(=O)c2cccc(C(F)(F)F)c2)cc1)c1ccnn1CC(F)(F)F [Compound 12, 1-(2,2,2-trifluoroethyl)-N-(4-((3-(trifluoromethyl)phenyl)sulfonyl)benzyl)-1H-pyrazole-5-carboxamide]
9.07 µM	0.76 µM	2.68 µM				CS(=O)(=O)c1nc(C(F)(F)F)ccc1C(=O)NCc1cccc(S(=O)(=O)c2cccc(C(F)(F)F)c2)c1 [Compound 21, 2-(methylsulfonyl)-6-(trifluoromethyl)-N-(3-((3-(trifluoromethyl)phenyl)sulfonyl)benzyl)nicotinamide]
6.13 µM	0.26 µM	0.8 µM				O=C1c2ccc(C(F)(F)F)nc2CN1Cc1cccc(S(=O)(=O)c2cccc(C(F)(F)F)c2)c1 [Compound 57, 2-(trifluoromethyl)-6-(3-((3-(trifluoromethyl)phenyl)sulfonyl)benzyl)-6,7-dihydro-5H-pyrrolo[3,4-b]pyridin-5-one]
1.54 µM	0.6 µM	0.88 µM				O=C(NCc1ccc(S(=O)(=O)c2cccc(C(F)(F)F)c2)cn1)c1ccc(F)c(Cl)c1 [Compound 104, 3-chloro-4-fluoro-N-((5-((3-(trifluoromethyl)phenyl)sulfonyl)pyridin-2-yl)methyl)benzamide]
2.38 µM	0.85 µM	0.43 µM				COc1cc(C(=O)NCc2ccc(S(=O)(=O)c3cccc(C(F)(F)F)c3)cc2)cc(Cl)n1 [Compound 14, 2-chloro-6-methoxy-N-(4-((3-(trifluoromethyl)phenyl)sulfonyl)benzyl)isonicotinamide]
1.85 µM	0.84 µM	1.29 µM				O=C(NCc1ccc(S(=O)(=O)c2cccc(C(F)(F)F)c2)cn1)c1ccc(C(F)(F)F)cn1 [Compound 91, 5-(trifluoromethyl)-N-((5-((3-(trifluoromethyl)phenyl)sulfonyl)pyridin-2-yl)methyl)picolinamide]
0.58 µM	0.44 µM					N[C@@H](C(=O)NCc1ccc(S(=O)(=O)c2cccc(C(F)(F)F)c2)cc1)c1ccccc1 [Compound 63, (R)-2-amino-2-phenyl-N-(4-((3-(trifluoromethyl)phenyl)sulfonyl)benzyl)acetamide]
			5.69 µM	1.02 µM		CC(C)(C(=O)Nc1ccc(Oc2ccc(C(F)(F)F)cn2)nc1)S(=O)(=O)c1cccc(C(F)(F)F)c1 [Compound 120, 2-methyl-2-((3-(trifluoromethyl)phenyl)sulfonyl)-N-(6-((5-(trifluoromethyl)pyridin-2-yl)oxy)pyridin-3-yl)propanamide]
